Measurements reported in US20230145823A1 (priority 2020, published 2023).
Like-named read-outs stand apart in the source and are kept apart here.

Legend:
TNF-α [1] = test: LPS-induced TNF-α production from SIM-A9 cells, ELISA; type: cell-based; settings: SIM-A9 cells stimulated with LPS
Experimental: (§1) Cytokines were quantified using ELISA kits following the manufacturer's instructions. Briefly, the high-binding plates were coated at 100 μL/well with diluted capture antibodies (1:250) at 4° C. overnight. The coated plates were then blocked with the diluent for 1 h before assay. Each sample was diluted accordingly and added to the plates for a 2 h incubation period at room temperature. Plates were then washed with 250 μL/well PBS with 0.05% Tween-20 and incubated with detection antibodies (1:250 in assay diluent) for 1 h at room temperature. After another washing step, 1:250 diluted avidin-HRP (horseradish peroxidase) was added and incubated for 30 min. Next, 100 μL TMB-substrate (3,3′,5,5′-tetramethylbenzidine) was added and the plate was incubated in the dark until the signal was sufficiently developed. […]. Absorbance was measured at 450 nm with a correction of 570 nm using a plate reader.
(§2) SIM-A9 (ATCC) cells were maintained in Dulbecco's modified eagle medium: nutrient mixture F-12 (DMEM-F12) with 10% foetal bovine serum, 5% horse-serum and antibiotic-antimycotic. SIM-A9 cells were seeded 24 h before the experiment. Culturing medium was replaced with DMEM-F12 medium containing 5% FBS+2.5% horse serum with required LPS concentration (final volume was one mL/well). The conditioned media and lysates were harvested for cytokine and cell marker examination.
. […]

IL-4 = IL-4 in conditioned medium of differentiated THP-1 cells, Multiplex assay using flow cytometry; type: cell-based; settings: LPS and IFNγ, 48 h
Experimental: (§3) THP-1 cells (ATCC) were maintained in RPMI 1,640 medium supplemented with 2-mercaptoethanol at a final concentration of 0.05 mM and FBS at a final concentration of 10%. THP-1 cells were seeded in each well of a 12-well tissue culture plate at a density 0.5×10^6 cells/mL, one day before experiments. THP-1 monocytes were differentiated by 150 nM PMA (phorbol 12-myristate 13-acetate) for 24 h.
(§4) . The levels of anti-inflammatory cytokines from the conditioned medium of differentiated THP-1 cells were measured after 48 h of stimulation with LPS and IFNγ by Multiplex assay using flow cytometry. […]

pro-IL-1β = pro-IL-1β expression in differentiated THP-1 macrophages, Western blot; type: cell-based; settings: PMA-differentiated THP-1 cells, LPS/IFNγ, 48 h
Experimental: as §3
Cells were washed twice with ice-cold PBS and harvested in RIPA buffer supplemented with a protease inhibitor cocktail. The whole-cell extracts were then centrifuged at 22,000×g for 20 min at 4° C. to remove cell debris. Protein concentrations were quantified using a Micro BCA protein assay kit. The absorbance was measured at 595 nm using a microplate reader. Equal amounts of cellular protein were separated by sodium dodecyl sulfate-polyacrylamide gel electrophoresis (SDS-PAGE) and transferred onto polyvinylidene difluoride (PVDF) membranes at 100 V for 90 min. The SDS-PAGE was performed with 10% polyacrylamide gel for iNOS and 12.5% for pro-IL-1β. The membranes were blocked for 1 h in Tris-buffered saline (TBS), pH 7.4, with 0.1% Tween-20 (TBS-T) containing 10% skim milk. […]

NO [2] = type: cell-based; settings: RAW264.7 cells, LPS, 25 μM furosemide, 24 h
arginase = test: Arginase in conditioned medium of differentiated THP-1 cells, Multiplex assay using flow cytometry; type: cell-based; settings: LPS and IFNγ, 48 h
Experimental: as §3, §4

[3] = system: inducible nitric oxide synthase (iNOS); settings: RAW264.7, LPS+IFNγ, 25 μM furosemide, 24 h
Experimental: Cells were washed twice with ice-cold PBS and harvested in RIPA buffer supplemented with a protease inhibitor cocktail. The whole-cell extracts were then centrifuged at 22,000×g for 20 min at 4° C. to remove cell debris. Protein concentrations were quantified using a Micro BCA protein assay kit. The absorbance was measured at 595 nm using a microplate reader. Equal amounts of cellular protein were separated by sodium dodecyl sulfate-polyacrylamide gel electrophoresis (SDS-PAGE) and transferred onto polyvinylidene difluoride (PVDF) membranes at 100 V for 90 min. The SDS-PAGE was performed with 10% polyacrylamide gel for iNOS and 12.5% for pro-IL-1β. The membranes were blocked for 1 h in Tris-buffered saline (TBS), pH 7.4, with 0.1% Tween-20 (TBS-T) containing 10% skim milk. The membrane blot was then incubated overnight at 4° C. with primary antibodies against iNOS (1:1,000), IL-1(3 (1:1,000), actin (1:5,000) and GAPDH (1:5,000) in TBS-T containing 5% skim milk. The membrane was washed with TBS-T 3×10 mins and incubated with goat anti-rabbit IgG-horseradish peroxidase (1:5,000) for 1 hour. After the washing step, the immunoblotting was visualized by chemiluminescence HRP-substrate.

IL-6 = test: LPS-induced IL-6 production from SIM-A9 cells, ELISA; type: cell-based; settings: SIM-A9 cells stimulated with LPS
Experimental: as §1, §2
. […]

[4] = previous studies; cited from earlier work
TNF-α [5] = type: cell-based; settings: RAW264.7 cells, LPS, 25 μM furosemide, 24 h
[6] = cited from earlier work
[7] = cited from earlier work; remark: listed apart in the source
[8] = system: interleukin-1 receptor antagonist (IL-1RA); test: IL-1RA in conditioned medium of differentiated THP-1 cells, Multiplex assay using flow cytometry; type: cell-based; settings: LPS and IFNγ, 48 h
Experimental: as §3
The levels of anti-inflammatory cytokines from the conditioned medium of differentiated THP-1 cells were measured after 48 h of stimulation with LPS and IFNγ by Multiplex assay using flow cytometry.

NO [9] = test: LPS-induced NO production from SIM-A9 cells, Griess assay; type: cell-based; settings: SIM-A9 cells stimulated with LPS
Experimental: Nitric oxide production from the conditioned media of RAW264.7 and SIM-A9 cell cultures was examined by a Griess assay. Conditioned medium and sulfanilamide were mixed in a microwell plate to form a transient diazonium salt. Then, N-naphtyl-ethylenediamine was added to all wells to form a stable azo compound by incubating for 5-10 min in the dark at room temperature. The absorbance was measured between 520 nm and 550 nm. The concentration of NO production was quantified by being plotted against a standard curve.
as §2
. IL-1β plays a key role in modulating inflammatory response as a downstream pro-inflammatory marker of the TLR4 signaling pathway by using differentiated THP-1 monocytes. The expression of IL-1β precursor protein (pro-IL-1β) from THP-1 macrophage cells was studied using Western blot analysis. […]. […]

TLR4 = test: LPS-induced TLR4 expression in RAW264.7 macrophage cells, flow cytometry; type: cell-based; settings: RAW264.7 cells stimulated with LPS
Experimental: RAW264.7 cells were purchased from ATCC and maintained in Dulbecco's Modified Eagle's Medium (DMEM) containing foetal bovine serum (FBS) at a final concentration of 10%. RAW264.7 cells were seeded in 12-well plates at 0.25×10^6 cells/well seeding density, one day before experiments. […]; conditioned media and lysates were harvested for analysis.
Cells were harvested and re-suspended with staining buffer. Cells were stained with antibody (1:100) by incubating at 4° C. for 30 min in the dark. Stained cells were centrifuged, and the supernatant was discarded. The cell pellets were then re-suspended in cell flow buffer, transferred to FACS tubes and analyzed by flow cytometry within 48 h. To all cells in the experiment, Fc blocker was added.
LPS is recognized by the cell surface pattern-recognition receptors such as the toll-like receptor 4 protein (TLR4) and triggers downstream signaling pathways. LPS induces expression of the pro-inflammatory cytokine IFNγ. IFNγ is known to increase TLR4 expression which may then promote the response to LPS stimulation. […]

COVID-19 = settings: cited from earlier work
[10] = Grogono et al. 2018, nebulized 40 mg in 4 mL 0.9% saline, healthy adults, multiple dosing per day
[11] = 21 patients with severe COVID-19, within a few days
[12] = 21 patients with severe COVID-19

NS(=O)(=O)c1cc(C(=O)O)c(NCc2ccco2)cc1Cl [furosemide, 4-chloro-N-furfuryl-5-sulfamoylanthranilic acid]
production of TNF-α (TNF-α [1]): significantly reduced
expression of IL-4 (IL-4): induces
expression of pro-IL-1β (pro-IL-1β): significantly decreases
production of NO (NO [2]): significantly decreased
production of NO (NO [2]; listed as Furosemide): decreases
expression of arginase (arginase): induces
expression of iNOS [3]: suppress
production of IL-6 (IL-6): significantly reduced
time to be shuttled from the lung and excreted [4]: 4 to 6 h
production of TNF-α (TNF-α [5]): significantly decreased
production of TNF-α (TNF-α [5]; listed as Furosemide): decreases
relief of experimentally induced air hunger [6, 10]: effective relief
untoward effects [6, 10]: no untoward effects
dose shown safe by inhalation ([6]; inhalation, previous studies): up to 120 mg per dose
lung IL-6, IL-8, and TNF-α levels ([6]; inhaled furosemide, patients with respiratory conditions): reduction
urge to urinate ([6]; patients receiving inhaled furosemide up to 40 mg): no increase
solution concentration achievable ([7]; non-salt furosemide, aqueous isotonic saline, pH between 8.0 and 9.3): 10 mg/mL
solution concentration achievable ([7]; weakly basic buffer solution (pH 8)): 10 mg/mL
expression of IL-1RA [8]: induces
production of NO (NO [9]): significantly reduced
LPS-induced TLR4 expression (TLR4+ cell population) (TLR4): completely blocked
LPS-induced TLR4 expression (TLR4+ cell population) (TLR4; listed as Furosemide): significantly decreases

tocilizumab: Roche's tocilizumab (Actemra), an IL-6 inhibitor
all other symptoms (COVID-19; [11]): improved remarkably
fevers (COVID-19; [11]): returned to normal
adverse reactions (COVID-19; [12]): no obvious adverse reactions
patients who lowered their oxygen intake (COVID-19; [12]): 75%
average time to discharge following treatment (COVID-19; nineteen discharged patients): 13.5 days
